How the values were obtained:
[1] = tested on: rats injected icv with STZ (episodic memory); assay: Object recognition test after icv STZ; assay type: in vivo, Sprague-Dawley rats; conditions: for Effect on the deficit in episodic memory: four weeks after icv STZ
Method: Male Sprague-Dawley rats (63) weighing 320-340 g, aged 4 months, were anesthetized by an intraperitoneal injection of Equithesin 0.3 ml/kg. STZ (0.5 mg) dissolved in 2 μl artificial cerebrospinal fluid (CSF) was injected into each lateral ventricle of 45 rats. The stereotaxic co-ordinates for icv injection were: 0.9 mm posterior, 1.8 mm lateral and 3.8 mm ventral from the bregma level. Control rats (18) received a bilateral injection of 2 μl artificial CSF. […] The remaining 20 rats received 1 ml/kg water. The rats were housed two per cage with free access to food and water until the behavioral, enzymatic and cytochemical measurements were completed.
Episodic memory in the object recognition test was still intact 2 but not 4 weeks after a single icv STZ injection (Table 3). Therefore, rats that were treated with ladostigil or water were tested for object and place recognition 4 weeks after icv injection of STZ or CSF. The object recognition test measured non-spatial working memory with characteristics of episodic memory that is primarily affected in senile dementia (Bartolini et al., Aniracetam restores object recognition impaired by age, scopolamine, and nucleus basalis lesions, Pharmacol. Biochem. Behav. (1996) 53:277-83). The test depended on intact cortical and hippocampal function (Winters et al., Double dissociation between the effects of peri-postrhinal cortex and hippocampal lesions on tests of object recognition and spatial memory: heterogeneity of function within the temporal lobe, J. Neuroscience (2004) 24:5901-8), while place recognition, another manifestation of spatial memory, was dependent on intact hippocampal function. The experiments were carried out as previously described in Mumby et al., Hippocampal damage and exploratory preferences in rats: memory for objects, places, and contexts, Learning Memory (2002) 9:49-57, in a box made of dark Perspex (60×60 cm and 50 cm high), covered with a dark Perspex lid. In order to increase their interest in the objects, rats were familiarized with the test arena by placing them in it for 5 min on each of 3 successive days and the object recognition test performed on the 4th day. Two identical objects were placed in the arena and the time taken by the rats to explore each object during a period of 3 min was recorded. One hour later, the objects were replaced by one that was identical to the two used in the first test and a second one that was different from them and the time taken to explore each of them was again recorded. The following day, the place recognition test was carried out with two identical objects as described above but different from those used previously. One hour later, the one of the two objects was moved to another position in the arena as described in Mumby et al., supra.
(§1) Group means of 3 measures in the object and place recognition tests, duration of exploration in first and second phases and discrimination index were submitted to one way ANOVA. Mean daily escape latencies for trial 1 and trial 2 in the MWM in each group were analyzed by repeated measures ANOVA for DAY and GROUP followed by Duncan's post hoc test where appropriate. Histological data were analyzed by univariate ANOVA followed by Duncan's post hoc test. All values represent means±SEM.

[2] = tested on: rats injected icv with STZ (spatial memory); assay: Morris water maze spatial memory after icv STZ; assay type: in vivo, Sprague-Dawley rats; conditions: icv STZ + chronic ladostigil 1 mg/kg vs icv STZ only
Method: Male Sprague-Dawley rats (63) weighing 320-340 g, aged 4 months, were anesthetized by an intraperitoneal injection of Equithesin 0.3 ml/kg. STZ (0.5 mg) dissolved in 2 μl artificial cerebrospinal fluid (CSF) was injected into each lateral ventricle of 45 rats. The stereotaxic co-ordinates for icv injection were: 0.9 mm posterior, 1.8 mm lateral and 3.8 mm ventral from the bregma level. Control rats (18) received a bilateral injection of 2 μl artificial CSF. STZ-injected rats (25) were given ladostigil (1 mg/kg of the hemitartrate salt/day) orally in a volume of (1 ml/kg) from one week before, until 1 or 8 weeks after icv STZ. The remaining 20 rats received 1 ml/kg water. The rats were housed two per cage with free access to food and water until the behavioral, enzymatic and cytochemical measurements were completed. […]
as §1, with “All values represent means±SEM.” left out

C#CCN[C@@H]1CCc2ccc(OC(=O)N(C)CC)cc21 [ladostigil, R(+)-6-(N-methyl,N-ethyl-carbamoyloxy)-N′-propargyl-1-aminoindan]
Deficit in episodic memory two days after dose ([1]; 17 mg/kg single dose, two days later when ChE was no longer inhibited): returned two days later | Discrimination index, Object ([1]; STZ (4 weeks) + 17 mg/kg acute): 0.348 ± 0.112 | Discrimination index, Object ([1]; STZ (4 weeks) + 17 mg/kg acute, two days later): −0.112 ± 0.08 | Discrimination index, Object ([1]; STZ (4 weeks) + ladostigil 1 mg/kg acute): 0.010 ± 0.08 | Discrimination index, Object ([1]; STZ (4 weeks) + ladostigil 1 mg/kg chronic, mean ± s.e.m.): 0.238 ± 0.05 | Discrimination in object recognition test ([1]; icv STZ with chronic ladostigil, significantly >0, P<0.05): significant discrimination index | Effect on the deficit in episodic memory ([1]; single dose 17 mg/kg): the memory deficit was abolished | Effect on the deficit in episodic memory ([1]; single dose of 1 mg/kg): no effect | Escape latency in Morris water maze, trial 1, means over 5 days [2]: rats given icv STZ only had significantly higher latencies than those injected with CSF or STZ and treated with ladostigil

— patent publication US8420696B2, “Use of low-dose ladostigil for neuroprotection” (priority 2005, dated 2013)
